The values below come from patent publication US12516016B2, “GPX4 inhibitors, pharmaceutical compositions thereof, and their use for treating GPX4-mediated diseases” (EUBULUS BIOTHERAPEUTICS (HONG KONG) LIMITED, priority 2020, dated 2026).

Molecules are shown by their SMILES.

This experiment concerns hepatocellular carcinoma cell line Hub-7. As to the kind of experiment: Cell proliferation assay (CELL-TITER GLO cell viability). It counts as cell-based. The settings on record: 24 h, Hub-7 cells, 24 h incubation, read-out: Inhibition of Cell Proliferation EC50. Summed up:
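[…] cells (4,000/well) seeded overnight, then exposed 24 h to compound from 10 μM in 3-fold serial dilutions. Viability read by CELL-TITER GLO luminescence; EC50 values derived.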

As to `C#CC(=O)N(c1ccc(O)cc1)C(C(=O)NC(C)(C)C)c1cccc(N)c1` (stereo not drawn) [A27, N-(1-(3-Aminophenyl)-2-(tert-butylamino)-2-oxoethyl)-N-(4-hydroxyphenyl)-propiolamide], the EC50 was 2000 to 10000 nM.
As for `C#CC(=O)N(c1cccc2c1CCC2=O)C1(C(=O)NCc2ccccc2)CCOCC1` [A148, N-Benzyl-4-(N-(1-oxo-2,3-dihydro-1H-inden-4-yl)propiolamido)tetrahydro-2H-pyran-4-carboxamide], the EC50 was not above 100 nM.
With `C#CC(=O)N(c1cccc(Cl)c1)C(C(=O)NCC1CCOCC1)c1ccccc1` (stereo not drawn) [A180, N-(3-Chlorophenyl)-N-(2-oxo-1-phenyl-2-(((tetrahydro-2H-pyran-4-yl)methyl)-amino)ethyl)propiolamide], the EC50 was not above 100 nM.
As to `C#CC(=O)N(c1cccc(Cl)c1)C1(C(=O)NCC(=O)N2CCCC(O)C2)CCOCC1` (stereo not drawn) [A183, 4-(N-(3-Chlorophenyl)propiolamido)-N-(2-(3-hydroxypiperidin-1-yl)-2-oxoethyl)tetrahydro-2H-pyran-4-carboxamide], the EC50 is 2000 to 10000 nM.
Take `C=CC(=O)N(c1ccc2c(cnn2C)c1)C1(C(=O)NCc2ccccc2)CCOCC1` [B11, N-Benzyl-4-(N-(1-methyl-1H-indazol-5-yl)acrylamido)tetrahydro-2H-pyran-4-carboxamide]: the EC50 was more than 10000 nM.
As to `C#CC(=O)N(c1ccc2c(cnn2C)c1)C1(C(=O)NCc2ccccc2)CCCC(=O)C1` (stereo not drawn) [A165, N-Benzyl-1-(N-(1-methyl-1H-indazol-5-yl)propiolamido)-3-oxocyclohexane-1-carboxamide], the EC50 was 100 to 500 nM.
The same measure for `C#CC(=O)N(c1cccc2c1CCC2=O)C(C(=O)NCc1ccccc1)c1ccccc1` (stereo not drawn) [A89, N-(2-(Benzylamino)-2-oxo-1-phenylethyl)-N-(1-oxo-2,3-dihydro-1H-inden-4-yl)propiolamide]: not above 100 nM; for `C#CC(=O)N(c1ccc(O)cc1)C(C(=O)NCc1ccccc1)c1ccc(N)cc1` (stereo not drawn) [A64, N-(1-(4-Aminophenyl)-2-(benzylamino)-2-oxoethyl)-N-(4-hydroxyphenyl)-propiolamide]: 2000 to 10000 nM; for `CC#CC(=O)N(c1ccc2c(cnn2C)c1)C1(C(=O)NCc2ccccc2)CCCC(C(=O)OC)C1` (stereo not drawn) [A127, Methyl3-(benzylcarbamoyl)-3-(N-(1-methyl-1H-indazol-5-yl)but-2-ynamido)-cyclohexane-1-carboxylate]: more than 10000 nM.
In the case of `C#CC(=O)N(c1cccc(Cl)c1)C1(C(=O)NCC(=O)NCc2ccccc2Cl)CCOCC1` [A187, N-(2-((2-Chlorobenzyl)amino)-2-oxoethyl)-4-(N-(3-chlorophenyl)propiolamido)-tetrahydro-2H-pyran-4-carboxamide], the EC50 is 100 to 500 nM.
On to `C#CC(=O)N(c1ccc2c(c1)OCO2)C(C(=O)NCc1ccccc1)c1ccccc1` (stereo not drawn) [A96, N-(Benzo[d][1,3]dioxol-5-yl)-N-(2-(benzylamino)-2-oxo-1-phenylethyl)-propiolamide], for which the EC50 is not above 100 nM.
The same measure for `C#CC(=O)N(c1ccc(S(N)(=O)=O)cc1)C(C(=O)NCc1ccccc1)c1ccc(N)cc1` (stereo not drawn) [A68, N-(1-(4-Aminophenyl)-2-(benzylamino)-2-oxoethyl)-N-(4-sulfamoylphenyl)-propiolamide]: more than 10000 nM.
The same measure for `C#CC(=O)N(C1CCC(=O)N(C)C1)C(C(=O)NCc1ccccc1)c1ccccc1` (stereo not drawn) [A158, N-(2-(Benzylamino)-2-oxo-1-phenylethyl)-N-(1-methyl-6-oxopiperidin-3-yl)-propiolamide]: 2000 to 10000 nM; for `C#CC(=O)N(c1ccc(NC(C)=O)cc1)C(C(=O)NC(C)(C)C)c1ccc(N)cc1` (stereo not drawn) [A13, N-(4-Acetamidophenyl)-N-(1-(4-aminophenyl)-2-(tert-butylamino)-2-oxoethyl)-propiolamide]: 2000 to 10000 nM.
The result for `C#CC(=O)N(c1cccc(CO)c1)C(C(=O)NCc1ccccc1)c1ccc(N)cc1` (stereo not drawn) [A56, N-(1-(4-Aminophenyl)-2-(benzylamino)-2-oxoethyl)-N-(3-(hydroxymethyl)-phenyl)propiolamide] reads 2000 to 10000 nM; that for `C=CC(=O)N(C1CCC1)C1(C(=O)NCc2ccccc2)CCOCC1` [B8, N-Benzyl-4-(N-cyclobutylacrylamido)tetrahydro-2H-pyran-4-carboxamide], more than 10000 nM.
In the case of `CC(Cl)C(=O)N(c1ccc2c(cnn2C)c1)C1(C(=O)NCc2ccccc2)CCOCC1` (stereo not drawn) [C24, N-Benzyl-4-(2-chloro-N-(1-methyl-1H-indazol-5-yl)propanamido)tetrahydro-2H-pyran-4-carboxamide], the EC50 is more than 10000 nM.
The result for `CC(C)N(C(=O)CCl)C(C(=O)NCCc1ccccc1)c1cccs1` (stereo not drawn) [C1, 2-chloro-N-isopropyl-N-(2-oxo-2-(phenethylamino)-1-(thiophen-2-yl)ethyl)acetamide] reads more than 10000 nM.
The result for `C#CC(=O)N(c1cccc(Cl)c1)C(C(=O)NCc1ccccc1)C1CCOCC1` (stereo not drawn) [A78, N-(2-(Benzylamino)-2-oxo-1-(tetrahydro-2H-pyran-4-yl)ethyl)-N-(3-chloro-phenyl)propiolamide] reads 500 to 2000 nM; that for `C#CC(=O)N(c1cccc(Cl)c1)C(C(=O)NCc1ccccc1C#N)c1ccccc1` (stereo not drawn) [A178, N-(3-Chlorophenyl)-N-(2-((2-cyanobenzyl)amino)-2-oxo-1-phenylethyl)-propiolamide], not above 100 nM; that for `C#CC(=O)N(c1ccc2c(cnn2C)c1)C1(C(=O)NCc2ccccc2)CCCC(C(=O)OC)C1` (stereo not drawn) [A177, Methyl 3-(benzylcarbamoyl)-3-(N-(1-methyl-1H-indazol-5-yl)propiolamido)-cyclohexane-1-carboxylate], not above 100 nM.
The same measure for `O=C(C#CCO)N(c1cccc(Cl)c1)C1(C(=O)NCc2ccccc2)CCOCC1` [A129, N-Benzyl-4-(N-(3-chlorophenyl)-4-hydroxybut-2-ynamido)tetrahydro-2H-pyran-4-carboxamide]: more than 10000 nM; for `CC#CC(=O)N(c1ccc2c(cnn2C)c1)C1(C(=O)NCc2ccccc2)CCCOC1` (stereo not drawn) [A126, N-Benzyl-3-(N-(1-methyl-1H-indazol-5-yl)but-2-ynamido)tetrahydro-2H-pyran-3-carboxamide]: 2000 to 10000 nM; for `C=CC(=O)N(c1ccc(OC)c(Cl)c1)C(C(=O)NCc1ccccc1)c1cccc(N)c1` (stereo not drawn) [B2, N-(2-(benzylamino)-1-(3-aminophenyl)-2-oxoethyl)-N-(3-chloro-4-methoxyphenyl)acrylamide]: more than 10000 nM.
Take `C#CC(=O)N(c1ccc2c(cnn2C)c1)C1(C(=O)NCc2ccccc2)CCOCC1` [A162, N-Benzyl-4-(N-(1-methyl-1H-indazol-5-yl)propiolamido)tetrahydro-2H-pyran-4-carboxamide]: the EC50 was not above 100 nM.
The same measure for `C=C(F)C(=O)N(c1ccc2c(cnn2C)c1)C1(C(=O)NCc2ccccc2)CCOCC1` [B9, N-Benzyl-4-(2-fluoro-N-(1-methyl-1H-indazol-5-yl)acrylamido)tetrahydro-2H-pyran-4-carboxamide]: more than 10000 nM; for `C#CC(=O)N(c1ccc(OC)cc1)C(C(=O)NC(C)(C)C)c1cccc(N)c1` (stereo not drawn) [A29, N-(1-(3-Aminophenyl)-2-(tert-butylamino)-2-oxoethyl)-N-(4-methoxyphenyl)-propiolamide]: 500 to 2000 nM.
The result for `C#CC(=O)N(c1cccc(Cl)c1)C(C(=O)NCC1COC1)c1ccccc1` (stereo not drawn) [A181, N-(3-Chlorophenyl)-N-(2-((oxetan-3-ylmethyl)amino)-2-oxo-1-phenylethyl)-propiolamide] reads not above 100 nM.
The result for `C#CC(=O)N(c1cccc(NC(C)=O)c1)C(C(=O)NCc1ccccc1)c1cccc(N)c1` (stereo not drawn) [A44, N-(3-Acetamidophenyl)-N-(1-(3-aminophenyl)-2-(benzylamino)-2-oxoethyl)-propiolamide] reads 2000 to 10000 nM; that for `C#CC(=O)N(c1cccc(Cl)c1)C(C(=O)NCc1ccccc1)c1ccncc1` (stereo not drawn) [A124], 500 to 2000 nM.
Take `C#CC(=O)N(c1cccc(C#N)c1)C(C(=O)NCc1ccccc1)c1ccc(N)cc1` (stereo not drawn) [A55, N-(1-(4-Aminophenyl)-2-(benzylamino)-2-oxoethyl)-N-(3-cyanophenyl)-propiolamide]: the EC50 lay in the range of 100 to 500 nM.
The result for `C#CC(=O)N(c1ccc(Cl)c(Cl)c1)C(C(=O)NCc1ccccc1)c1ccc(N)cc1` (stereo not drawn) [A65, N-(1-(4-Aminophenyl)-2-(benzylamino)-2-oxoethyl)-N-(3,4-dichlorophenyl)-propiolamide] reads not above 100 nM.
The same measure for `O=C(NCCc1ccccc1)C(c1ccc([N+](=O)[O-])cc1)N(C(=O)CCl)c1cccc(O)c1` (stereo not drawn) [C9, 2-Chloro-N-(3-hydroxyphenyl)-N-(1-(4-nitrophenyl)-2-oxo-2-(phenethylamino)-ethyl)acetamide]: 2000 to 10000 nM; for `C#CC(=O)N(c1ccc(NS(C)(=O)=O)cc1)C(C(=O)NCc1ccccc1)c1ccc(N)cc1` (stereo not drawn) [A71, N-(1-(4-Aminophenyl)-2-(benzylamino)-2-oxoethyl)-N-(4-(methylsulfonamido)-phenyl)propiolamide]: 2000 to 10000 nM.
The same measure for `C#CC(=O)N(c1cccc(-c2ccn(C)n2)c1)C1(C(=O)NCc2ccccc2)CCOCC1` [A136, N-Benzyl-4-(N-(3-(1-methyl-1H-pyrazol-3-yl)phenyl)propiolamido)tetrahydro-2H-pyran-4-carboxamide]: 100 to 500 nM; for `C=CC(=O)N(Cc1cccc(O)c1)C1(C(=O)NCc2ccccc2)CCOCC1` [B7, N-Benzyl-4-(N-(3-hydroxybenzyl)acrylamido)tetrahydro-2H-pyran-4-carboxamide]: more than 10000 nM; for `C#CC(=O)N(c1cccc(Cl)c1)C1(C(=O)NCC(=O)O)CCOCC1` [A192, 2-(4-(N-(3-Chlorophenyl)propiolamido)tetrahydro-2H-pyran-4-carboxamido)-acetic acid]: more than 10000 nM.
On to `C#CC(=O)N(c1cccc(Cl)c1)C1(C(=O)NCc2ccccc2)CCC(C(=O)OC)CC1` (stereo not drawn) [A79, Methyl 4-(benzylcarbamoyl)-4-(N-(3-chlorophenyl)propiolamido)-cyclohexane-carboxylate], for which the EC50 is not above 100 nM.
The same measure for `C#CC(=O)N(c1ccc2[nH]ccc2c1)C1(C(=O)NCc2ccccc2)CCOCC1` [A152, 4-(N-(1H-Indol-5-yl)propiolamido)-N-benzyltetrahydro-2H-pyran-4-carboxamide]: 2000 to 10000 nM.
